# Results taken from US20130053381A1, “2,4-DIOXO-1,4-DIHYDRO-2H-QUINAZOLIN-3-YL-SULFONAMIDE DERIVATIVES” (NOVARTIS AG, priority 2010, published 2013).
# Where two headings read alike, the source gives them in different places.
# Tested on: OF1 mice
# Assay: Maximal electroshock test (MES Test)
# Assay type: in vivo
# Conditions: Mus musculus, read-out: %-Protection; for responders at 50 mg/kg: p.o.
# In short: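 Readout: fraction of five OF1 mice protected, meaning seizure duration 3 s or less, after a 50 Hz, 18 mA, 0.2 s temporal-electrode shock. Dosing was oral, usually 50 mg/kg, one hour beforehand; ED50 values were derived and post-shock blood taken for exposure.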
# [1] = po, 50 mg/kg, pre-treatment time −1 h
# [2] = dose of up to 50 mg/kg, 1 hour prior to induction of convulsions
SMILES,responders at 50 mg/kg [1],also measured
"CCC(O)c1cc2c(=O)n(N(C(=O)C(C)C)S(C)(=O)=O)c(=O)[nH]c2cc1C(F)(F)F (centres unmarked) [Example 12.04, N-[6-(1-Hydroxy-propyl)-2,4-dioxo-7-trifluoromethyl-1,4-dihydro-2H-quinazolin-3-yl]-N-isobutyryl-methanesulfonamide]",40%,
"CCC(OC)c1cc2c(=O)n(N(C(=O)OC(C)C)S(C)(=O)=O)c(=O)[nH]c2cc1C(F)(F)F (centres unmarked) [Example 11.14, Methanesulfonyl-[6-(1-methoxy-propyl)-2,4-dioxo-7-trifluoromethyl-1,4-dihydro-2H-quinazolin-3-yl]-carbamic acid isopropyl ester]",60%,
"CCC(=O)N(n1c(=O)[nH]c2cc(C(F)(F)F)c(-n3cccc3)cc2c1=O)S(C)(=O)=O [Example 8.01, N-(2,4-Dioxo-6-pyrrol-1-yl-7-trifluoromethyl-1,4-dihydro-2H-quinazolin-3-yl)-N-propionyl-methanesulfonamide]",20%,
"CC(C)C(=O)N(n1c(=O)[nH]c2cc(C(F)(F)F)c(-c3ccnn3C)cc2c1=O)S(C)(=O)=O [Example 1.02, N-Isobutyryl-N-[6-(2-methyl-2H-pyrazol-3-yl)-2,4-dioxo-7-trifluoromethyl-1,4-dihydro-2H-quinazolin-3-yl]-methanesulfonamide]",100%,
"CCC(=O)N(n1c(=O)[nH]c2cc(C(F)(F)F)c(C(CC)OC)cc2c1=O)S(C)(=O)=O (centres unmarked) [Example 11.02, N-[6-(1-Methoxy-propyl)-2,4-dioxo-7-trifluoromethyl-1,4-dihydro-2H-quinazolin-3-yl]-N-propionyl-methanesulfonamide]",100%,
"CCCCCC(=O)N(n1c(=O)[nH]c2cc(C(F)(F)F)c(-n3cnnc3)cc2c1=O)S(C)(=O)=O [Example 9.02, N-(2,4-Dioxo-6-[1,2,4]triazol-4-yl-7-trifluoromethyl-1,4-dihydro-2H-quinazolin-3-yl)-N-hexanoyl-methanesulfonamide]",,"responders at 50 mg/kg (po, 50 mg/kg, pre-treatment time −2 h (footnote a)): 20%"
"CCn1nccc1-c1cc2c(=O)n(N(C(=O)C(C)(C)C)S(C)(=O)=O)c(=O)[nH]c2cc1C(F)(F)F [Example 15.04, N-(2,2-Dimethyl-propionyl)-N-[6-(2-ethyl-2H-pyrazol-3-yl)-2,4-dioxo-7-trifluoromethyl-1,4-dihydro-2H-quinazolin-3-yl]-methanesulfonamide]",20%,
"CCn1nccc1-c1cc2c(=O)n(N(C(=O)OC)S(C)(=O)=O)c(=O)[nH]c2cc1C(F)F [[7-Difluoromethyl-6-(2-ethyl-2H-pyrazol-3-yl)-2,4-dioxo-1,4-dihydro-2H-quinazolin-3-yl]-methanesulfonyl-carbamic acid methyl ester]",,responders at 50 mg/kg [2]: 0%
"CCCCC(=O)N(n1c(=O)[nH]c2cc(C(F)F)c(-c3ccnn3C(C)C)cc2c1=O)S(C)(=O)=O [Example 6.03, N-[7-Difluoromethyl-6-(2-isopropyl-2H-pyrazol-3-yl)-2,4-dioxo-1,4-dihydro-2H-quinazolin-3-yl]-N-pentanoyl-methanesulfonamide]",40%,"responders at 25 mg/kg (po, Dose: 25 mg/kg, p.o. (footnote b), pre-treatment time −1 h): 0%"
"CCn1nccc1-c1cc2c(=O)n(NS(C)(=O)=O)c(=O)[nH]c2cc1C(F)F [Example 14.0, N-[7-Difluoromethyl-6-(2-ethyl-2H-pyrazol-3-yl)-2,4-dioxo-1,4-dihydro-2H-quinazolin-3-yl]-methanesulfonamide]",0%,
"CCc1cc2[nH]c(=O)n(N(C(=O)C(C)C)S(C)(=O)=O)c(=O)c2cc1-c1ccnn1CC [N-[7-Ethyl-6-(2-ethyl-2H-pyrazol-3-yl)-2,4-dioxo-1,4-dihydro-2H-quinazolin-3-yl]-N-isobutyryl-methanesulfonamide]",,responders at 50 mg/kg [2]: 0%
"COCCOC(=O)N(n1c(=O)[nH]c2cc(C(F)(F)F)c(-c3ccnn3C)cc2c1=O)S(C)(=O)=O [Example 1.07, Methanesulfonyl-[6-(2-methyl-2H-pyrazol-3-yl)-2,4-dioxo-7-trifluoromethyl-1,4-dihydro-2H-quinazolin-3-yl]-carbamic acid 2-methoxy-ethyl ester]",80%,
"CCCCCC(=O)N(n1c(=O)[nH]c2cc(C(F)(F)F)c(C(O)CC)cc2c1=O)S(C)(=O)=O (centres unmarked) [Example 12.01, N-Hexanoyl-N-[6-(1-hydroxy-propyl)-2,4-dioxo-7-trifluoromethyl-1,4-dihydro-2H-quinazolin-3-yl]-methanesulfonamide]",40%,
"COC(=O)n1c(=O)n(N(C(C)=O)S(C)(=O)=O)c(=O)c2cc(-c3ccnn3C)c(C(C)C)cc21 [Example 3.36, 3-(Acetyl-methanesulfonyl-amino)-7-isopropyl-6-(2-methyl-2H-pyrazol-3-yl)-2,4-dioxo-3,4-dihydro-2H-quinazoline-1-carboxylic acid methyl ester]",100%,
"CCCCCC(=O)N(n1c(=O)[nH]c2cc(C(F)F)c(-c3ccnn3C(C)C)cc2c1=O)S(C)(=O)=O [N-[7-Difluoromethyl-6-(2-isopropyl-2H-pyrazol-3-yl)-2,4-dioxo-1,4-dihydro-2H-quinazolin-3-yl]-N-hexanoyl-methanesulfonamide]",,responders at 50 mg/kg [2]: 0%
"CCCCOC(=O)N(n1c(=O)[nH]c2cc(C(F)(F)F)c(-c3ccnn3CC)cc2c1=O)S(C)(=O)=O [Example 15.03, [6-(2-Ethyl-2H-pyrazol-3-yl)-2,4-dioxo-7-trifluoromethyl-1,4-dihydro-2H-quinazolin-3-yl]-methanesulfonyl-carbamic acid butyl ester]",20%,
"CC(=O)OCC(=O)N(n1c(=O)[nH]c2cc(C(C)C)c(-c3ccnn3C)cc2c1=O)S(C)(=O)=O [Example 3.17, Acetic acid 2-{[7-isopropyl-6-(2-methyl-2H-pyrazol-3-yl)-2,4-dioxo-1,4-dihydro-2H-quinazolin-3-yl]-methanesulfonyl-amino}-2-oxo-ethyl ester]",100%,
"CCCCC(=O)N(n1c(=O)[nH]c2cc(C(F)(F)F)c([C@H]3CCCO3)cc2c1=O)S(C)(=O)=O [Example 10.11, N—((R)-2,4-Dioxo-6-tetrahydro-furan-2-yl-7-trifluoromethyl-1,4-dihydro-2H-quinazolin-3-yl)-N-pentanoyl-methanesulfonamide]",20%,
"CCOC(=O)N(n1c(=O)[nH]c2cc(CC)c(-c3ccnn3C)cc2c1=O)S(C)(=O)=O [Example 2.08, Methanesulfonyl-[7-ethyl-6-(2-methyl-2H-pyrazol-3-yl)-2,4-dioxo-1,4-dihydro-2H-quinazolin-3-yl]-carbamic acid ethyl ester]",80%,
"COC(=O)N(n1c(=O)[nH]c2cc(C(F)F)c(-c3ccnn3C(C)C)cc2c1=O)S(C)(=O)=O [[7-Difluoromethyl-6-(2-isopropyl-2H-pyrazol-3-yl)-2,4-dioxo-1,4-dihydro-2H-quinazolin-3-yl]-methanesulfonyl-carbamic acid methyl ester]",,responders at 50 mg/kg [2]: 0%
"CCc1cc2c(cc1-c1ccnn1C)c(=O)n(N(C(C)=O)S(C)(=O)=O)c(=O)n2C(C)=O [Example 2.14, N-Acetyl-N-[1-acetyl-7-ethyl-6-(2-methyl-2H-pyrazol-3-yl)-2,4-dioxo-1,4-dihydro-2H-quinazolin-3-yl]-methanesulfonamide]",100%,
"CCC(=O)N(n1c(=O)[nH]c2cc(C(F)F)c(-c3ccnn3CC)cc2c1=O)S(C)(=O)=O [N-[7-Difluoromethyl-6-(2-ethyl-2H-pyrazol-3-yl)-2,4-dioxo-1,4-dihydro-2H-quinazolin-3-yl]-N-propionyl-methanesulfonamide]",,responders at 50 mg/kg [2]: 0%
